Assay results reported in publication PMC6471062, “Suppression of the Ubiquitin Pathway by Small Molecule Binding to Ubiquitin Enhances Doxorubicin Sensitivity of the Cancer Cells” (Molecules, 2019).

Tested on: Ubc13
Test: In vitro K63 polyubiquitination reaction with Ubc13
Type: biochemical
Conditions: purified Ubc13 (Mms2/Ubc13), increasing CR (50–500 µM), 500 µM ubiquitin, 37 °C
Protocol: Figure 5 CR inhibits K48- and K63- polyubiquitination in vitro. (a) Interacting surface of ubiquitin when complex with E2-25K and Ubc13 compared with the surface used for CR binding. (b,c) CR inhibits K48- (b) and K63-ubiquitinations (c). First, mono ubiquitin was mixed with UBA1, E2-25K or complex Mms2/Ubc13, and 0–500 µM CR in the presence or absence of ATP regeneration system. Then the mixture was incubated at 37 °C for […]. The reaction was stopped by adding 5X SDS loading buffer and the results were analyzed with 15% SDS-PAGE.
For in vitro ubiquitination assays, 500 µM of ubiquitin was used for each ubiquitination reaction as described previously, in the absence or presence of 50–500 µM of CR. The reactions were incubated at 37 °C for 4 h and 16 h for K63- and K48 polyubiquitination respectively. The reaction was terminated by adding 5X SDS sampling buffer and results were subjected to 15% SDS-PAGE followed by Coomassie Blue staining for analyses. […] The generation of GST-ubiquitin from GST-Ubiquitin-HA as the mobility shifts were analyzed on 12.5% SDS-PAGE visualized by Coomassie blue staining. Band intensities were quantified by ImageJ [55] and used to generate the IC50 curves (log inhibitor vs. normalized response with variable slope) by GraphPad Prism version 6.0 for Windows (GraphPad Software, San Diego, CA, USA, www.graphpad.com).

`Nc1c(/N=N/c2ccc(-c3ccc(/N=N/c4cc(S(=O)(=O)O)c5ccccc5c4N)cc3)cc2)cc(S(=O)(=O)O)c2ccccc12` [CR, Congo red] was tested, and the “Inhibition of K63 polyubiquitination” value was “effectively inhibited by CR in a dose-dependent manner”.
